Reference: patent publication US9376376B2, “Substitute diphenylamine compounds use thereof as antitumor agents” (SINOCHEM CORPORATION, priority 2012, dated 2016)

How the values were obtained:
lung cancer A549 cell = experiment: In vitro cell inhibition assay (MTT method), A549; assay type: cell-based, human; conditions: 48 h incubation
leukemia HL-60 cells [1] = experiment: In vitro cell inhibition assay (MTT method), HL-60; assay type: cell-based, human; conditions: 48 h
[2] = test system: non-small cell lung cancer A549 cells; experiment: In vitro cell inhibition assay, CCK-8 method, A549; assay type: cell-based, human; conditions: for Proliferation inhibitory effect of the compounds on A549 cells (% of Control): 48 h incubation
Method: (§1) After the cell culture flasks gently shaking, culture fluid was discarded in clean bench. […] Cells were collected and transferred to centrifuge tube. For the non-adherent cells HL-60, CCRF-CEM and MOLT-4, cell flasks were picked up from incubator and then transferred to the centrifuge tubes directly. After cells were collected using centrifuge at 1000 rpm/min for 5 min, the fluid was discarded. Then cells were washed for one time by PBS, discard fluid. Then add some medium, count cells under inverted microscope using blood cell counting plate, according the counting number to making the density of adherent cell was 1×10^5 cells/mL, the non-adherent cell was 2×10^5 cells/mL (the volumes of HL-60, CCRF-CEM, MOLT-4 are smaller than non-adherent cells, these cells added to each well was much more higher). Add 50 μL aliquots to each well of 96-well plates (the density of adherent cells was 5000 cells/well, non-adherent cells was 10000 cells/well). Blank control, Negative control, blank control with compounds and positive control wells were grouped, and three replicate wells were used for each data point in the experiments. Then the cells were cultured in 5% incubator for overnight at 37° C., Then the different concentration compounds were added to each well. After incubation for 48 h, according to the manufacturer's instructions, CCK-8 reagent (10 μl) was added and incubation was continued for a further 2-4 h. The absorbance (A) of each well was read at 450 nm using a plate reader.

leukemia HL-60 cells [3] = experiment: In vitro cell inhibition assay, CCK-8 method, HL-60; assay type: cell-based, human; conditions: for Proliferation inhibitory effect of the compounds on HL-60 cells (% of Control): CCK-8 method
Method: as §1

[4] = test system: non-small cell lung cancer NCI-H1650; experiment: In vitro cell inhibition assay, CCK-8 method, NCI-H1650; assay type: cell-based, human; conditions: Non-small-cell carcinoma NCI-H1650, CCK-8 method; read-out: The half maximal inhibitory concentration (IC50)
Method: as §1, with “After incubation for 48 h, according to the manufacturer's instructions, CCK-8 reagent (10 μl) was added and incubation was continued for a further 2-4 h.” left out

[5] = test system: non-small cell lung cancer NCI-H358; experiment: In vitro cell inhibition assay, CCK-8 method, NCI-H358; assay type: cell-based, human; conditions: Non-small-cell carcinoma NCI-H358, CCK-8 method; read-out: The half maximal inhibitory concentration (IC50)
Method: as §1, with “After incubation for 48 h, according to the manufacturer's instructions, CCK-8 reagent (10 μl) was added and incubation was continued for a further 2-4 h.” left out

leukemia CCRF-CEM = experiment: In vitro cell inhibition assay, CCK-8 method, CCRF-CEM; assay type: cell-based, human; conditions: read-out: The half maximal inhibitory concentration (IC50)
Method: as §1, with “After incubation for 48 h, according to the manufacturer's instructions, CCK-8 reagent (10 μl) was added and incubation was continued for a further 2-4 h.” left out

leukemia MOLT-4 = experiment: In vitro cell inhibition assay, CCK-8 method, MOLT-4; assay type: cell-based, human; conditions: leukemia MOLT-4, CCK-8 method; read-out: The half maximal inhibitory concentration (IC50)
Method: as §1, with “After incubation for 48 h, according to the manufacturer's instructions, CCK-8 reagent (10 μl) was added and incubation was continued for a further 2-4 h.” left out

colon cancer HT-29 = experiment: In vitro cell inhibition assay, CCK-8 method, HT-29; assay type: cell-based, human; conditions: Colorectal Cancer HT-29, CCK-8 method; read-out: The half maximal inhibitory concentration (IC50)
Method: as §1, with “After incubation for 48 h, according to the manufacturer's instructions, CCK-8 reagent (10 μl) was added and incubation was continued for a further 2-4 h.” left out

pancreatic cancer BXPC-3 = experiment: In vitro cell inhibition assay, CCK-8 method, BXPC-3; assay type: cell-based, human; conditions: pancreatic cancer BXPC-3, CCK-8 method; read-out: The half maximal inhibitory concentration (IC50)
Method: as §1, with “After incubation for 48 h, according to the manufacturer's instructions, CCK-8 reagent (10 μl) was added and incubation was continued for a further 2-4 h.” left out

hepatocarcinoma SK-HEP-1 = experiment: In vitro cell inhibition assay, CCK-8 method, SK-HEP-1; assay type: cell-based, human; conditions: hepatocarcinoma SK-HEP-1, CCK-8 method; read-out: The half maximal inhibitory concentration (IC50)
Method: as §1, with “After incubation for 48 h, according to the manufacturer's instructions, CCK-8 reagent (10 μl) was added and incubation was continued for a further 2-4 h.” left out

cervical cancer Hela = experiment: In vitro cell inhibition assay, CCK-8 method, Hela; assay type: cell-based, human; conditions: read-out: The half maximal inhibitory concentration (IC50)
Method: as §1, with “After incubation for 48 h, according to the manufacturer's instructions, CCK-8 reagent (10 μl) was added and incubation was continued for a further 2-4 h.” left out

bladder cancer T24 = experiment: In vitro cell inhibition assay, CCK-8 method, T24; assay type: cell-based, human; conditions: bladder cancer T24, CCK-8 method; read-out: The half maximal inhibitory concentration (IC50)
Method: as §1, with “After incubation for 48 h, according to the manufacturer's instructions, CCK-8 reagent (10 μl) was added and incubation was continued for a further 2-4 h.” left out

prostate cancer DU-145 = experiment: In vitro cell inhibition assay, CCK-8 method, DU-145; assay type: cell-based, human; conditions: Prostate cancer DU-145, CCK-8 method; read-out: The half maximal inhibitory concentration (IC50)
Method: as §1, with “After incubation for 48 h, according to the manufacturer's instructions, CCK-8 reagent (10 μl) was added and incubation was continued for a further 2-4 h.” left out

prostate cancer PC-3 = experiment: In vitro cell inhibition assay, CCK-8 method, PC-3; assay type: cell-based, human; conditions: Prostate cancer PC-3, CCK-8 method; read-out: The half maximal inhibitory concentration (IC50)
Method: as §1, with “After incubation for 48 h, according to the manufacturer's instructions, CCK-8 reagent (10 μl) was added and incubation was continued for a further 2-4 h.” left out

osteosarcoma MG-63 = experiment: In vitro cell inhibition assay, CCK-8 method, MG-63; assay type: cell-based, human; conditions: osteosarcoma MG-63, CCK-8 method; read-out: The half maximal inhibitory concentration (IC50)
Method: as §1, with “After incubation for 48 h, according to the manufacturer's instructions, CCK-8 reagent (10 μl) was added and incubation was continued for a further 2-4 h.” left out

breast cancer MDA-MB-231 = experiment: In vitro cell inhibition assay, CCK-8 method, MDA-MB-231; assay type: cell-based, human; conditions: breast cancer MDA-MB-231, CCK-8 method; read-out: The half maximal inhibitory concentration (IC50)
Method: as §1, with “After incubation for 48 h, according to the manufacturer's instructions, CCK-8 reagent (10 μl) was added and incubation was continued for a further 2-4 h.” left out

[6] = test system: intracranial malignant melanoma A375; experiment: In vitro cell inhibition assay, CCK-8 method, A375; assay type: cell-based, human; conditions: melanoma A375, CCK-8 method; read-out: The half maximal inhibitory concentration (IC50)
Method: as §1, with “After incubation for 48 h, according to the manufacturer's instructions, CCK-8 reagent (10 μl) was added and incubation was continued for a further 2-4 h.” left out

glioma U251 = experiment: In vitro cell inhibition assay, CCK-8 method, U251; assay type: cell-based, human; conditions: glioma U251, CCK-8 method; read-out: The half maximal inhibitory concentration (IC50)
Method: as §1, with “After incubation for 48 h, according to the manufacturer's instructions, CCK-8 reagent (10 μl) was added and incubation was continued for a further 2-4 h.” left out

[7] = test system: nasopharyngeal carcinoma CNE; experiment: In vitro cell inhibition assay, CCK-8 method, CNE; assay type: cell-based, human; conditions: read-out: The half maximal inhibitory concentration (IC50)
Method: as §1, with “After incubation for 48 h, according to the manufacturer's instructions, CCK-8 reagent (10 μl) was added and incubation was continued for a further 2-4 h.” left out

colon cancer COLO-205 = experiment: In vitro cell inhibition assay, CCK-8 method, COLO-205; conditions: read-out: The half maximal inhibitory concentration (IC50); Colorectal Cancer COLO-205, CCK-8 method

With N#Cc1c(Cl)c(Cl)c(Nc2c(Cl)cc(Cl)cc2Cl)c(C#N)c1Cl [Compound 6-93] the “Proliferation inhibitory effect of the compounds on A549 cell (% of Control)” value (lung cancer A549 cell; 0.01 μM) was 12.1 % of Control, the “Proliferation inhibitory effect of the compounds on A549 cell (% of Control)” value (lung cancer A549 cell; 0.1 μM) was 39.4 % of Control and the “Proliferation inhibitory effect of the compounds on A549 cell (% of Control)” value (lung cancer A549 cell; 1 μM) was 74.8 % of Control. For the same compound, the “Proliferation inhibitory effect of the compounds on A549 cell (% of Control)” value (lung cancer A549 cell; 10 μM) was 80.3 % of Control, the “Proliferation inhibitory effect of the compounds on A549 cell (% of Control)” value (lung cancer A549 cell; 100 μM) was 98.2 % of Control and the “Proliferation inhibitory effect of the compounds on HL-60 cells (% of Control)” value (leukemia HL-60 cells [1]; concentration 0.01 μM) was 0 % of Control. For the same compound, the “Proliferation inhibitory effect of the compounds on HL-60 cells (% of Control)” value (leukemia HL-60 cells [1]; concentration 0.1 μM) was 51.8 % of Control, the “Proliferation inhibitory effect of the compounds on HL-60 cells (% of Control)” value (leukemia HL-60 cells [1]; concentration 1 μM) was 70.7 % of Control and the “Proliferation inhibitory effect of the compounds on HL-60 cells (% of Control)” value (leukemia HL-60 cells [1]; concentration 10 μM) was 72.3 % of Control. For the same compound, the “Proliferation inhibitory effect of the compounds on HL-60 cells (% of Control)” value (leukemia HL-60 cells [1]; concentration 100 μM) was 74.8 % of Control, the “Proliferation inhibitory effect of the compounds on A549 cells (% of Control)” value ([2]; CCK-8, 0.01 μM) was 14.77 % of Control and the “Proliferation inhibitory effect of the compounds on A549 cells (% of Control)” value ([2]; CCK-8, 0.1 μM) was 19.35 % of Control. The “Proliferation inhibitory effect of the compounds on A549 cells (% of Control)” value ([2]; CCK-8, 1 μM) was 70.04 % of Control, the “Proliferation inhibitory effect of the compounds on A549 cells (% of Control)” value ([2]; CCK-8, 10 μM) was 87.64 % of Control and the “Proliferation inhibitory effect of the compounds on A549 cells (% of Control)” value ([2]; CCK-8, 100 μM) was 98.18 % of Control. The IC50 ([2]; Non-small-cell carcinoma A549, CCK-8 method, read-out: The half maximal inhibitory concentration (IC50)) was 715 nM, the “Proliferation inhibitory effect of the compounds on HL-60 cells (% of Control)” value (leukemia HL-60 cells [3]; concentration 0.01 μM) was 30.19 % of Control and the “Proliferation inhibitory effect of the compounds on HL-60 cells (% of Control)” value (leukemia HL-60 cells [3]; concentration 0.1 μM) was 44.96 % of Control. The “Proliferation inhibitory effect of the compounds on HL-60 cells (% of Control)” value (leukemia HL-60 cells [3]; concentration 1 μM) was 82.05 % of Control, the “Proliferation inhibitory effect of the compounds on HL-60 cells (% of Control)” value (leukemia HL-60 cells [3]; concentration 10 μM) was 87.80 % of Control and the “Proliferation inhibitory effect of the compounds on HL-60 cells (% of Control)” value (leukemia HL-60 cells [3]; concentration 100 μM) was 93.71 % of Control. It also gave an IC50 (leukemia HL-60 cells [3]; leukemia HL-60, CCK-8 method, read-out: The half maximal inhibitory concentration (IC50)) of 85 nM, an IC50 [4] of 1370 nM and an IC50 [5] of 443 nM. For the same compound, the IC50 (leukemia CCRF-CEM) was less than 10 nM, the IC50 (leukemia MOLT-4) was 167 nM and the IC50 (colon cancer HT-29) was 224 nM. For the same compound, the IC50 (pancreatic cancer BXPC-3) was 331 nM, the IC50 (hepatocarcinoma SK-HEP-1) was 489 nM and the IC50 (cervical cancer Hela) was 1510 nM. For the same compound, the IC50 (bladder cancer T24) was 603 nM, the IC50 (prostate cancer DU-145) was 646 nM and the IC50 (prostate cancer PC-3) was 1360 nM. It also gave an IC50 (osteosarcoma MG-63) of 196 nM, an IC50 (breast cancer MDA-MB-231) of 175 nM and an IC50 [6] of 160 nM. The IC50 (glioma U251) was 1620 nM, the IC50 [7] was 6080 nM and the IC50 (colon cancer COLO-205) was 125 nM.
